Experimental data reported in patent US20190343922A1, “HISTATIN FOR CORNEAL WOUND HEALING AND OCULAR SURFACE DISEASE” (Rapid Pathogen Screening, Inc., priority 2012, published 2019).

Columns and labels:
corneal wounds = experiment: Corneal epithelial defect wound healing in rabbits (fluorescein staining, computerized area determination); type: in vivo, New Zealand White rabbits
Protocol: The study disclosed herein evaluates and quantifies the wound healing effects of histatins on the ocular surface of New Zealand White rabbits.
Epithelial defects are created in the right eye (oculus dexter, OD) of 12 New Zealand White rabbits. Due to animal regulations, bilateral wounding is not permitted. After the epithelial defects are made, the rabbits are randomized into treatment groups. Two (2) groups are treated with different cyclized histatin concentrations: 0.1 μg/ml and 10 μg/ml dissolved into an ophthalmic artificial tear preparation and delivered to the rabbits as an eye drop three times daily. Histatins known in the art, including, but not limited to, amino acid SEQ ID NOS: 1 through 33, which include Hst-1 (SEQ ID NO: 4), Hst-2 (SEQ ID NO: 5), Hst-3 (SEQ ID NO: 6), Hst-5 (SEQ ID NO: 30), and sortase cyclized histatin (SEQ ID NO: 33), may be used in these studies or in treatment protocols. […] This control group should receive the same vehicle identical to the other two groups but without histatin. An over-the-counter artificial tear preferably serves as the vehicle. The initial study included four (4) animals/group in three (3) groups, for a total of twelve rabbits.
Each rabbit group is preferably given moxifloxicin treatment to prevent infection.
(§1) The corneal wounds are then evaluated daily for the corneal wound healing abilities of histatin via fluorescein staining, fluorescent slit lamp biomicrophotography and computerized area determination. Evaluators are masked to the therapeutic treatment given to the rabbits. After healing, two (2) animals from each group are euthanized, and the corneas collected for histological processing (H&E staining with subsequent evaluation by veterinary histopathologist). The decision to perform histopathologic analysis after tissue procurement is made only if there is proven difference in healing between the different treatment groups and the controls. At study termination (study preferably continues for seven days), the remaining animals are euthanized.

rabbit corneas = settings: in vivo
Protocol: as §1
The histatin used in this study was cyclized histatin 1.

Substance: cyclo(DNLPETGGDSHEKRHHGYRRKFHEKHHSHREFPFYGDYGSNYLY) [cyclized histatin 1]
- Corneal wound size (corneal wounds; 0.1 μg/ml eye drop three times daily, 54 hours post wound): 0.00 ± 0.00 mm^2
- Corneal wound size (corneal wounds; 0.1 μg/ml eye drop three times daily, 72 hours post wound): 0.00 ± 0.00 mm^2
- Percentage of 1 hour post wound size (corneal wounds; 0.1 ug/ml, 0 hours post wound): 100%
- Percentage of 1 hour post wound size (corneal wounds; 0.1 ug/ml, 6 hours post wound): 85%
- Percentage of 1 hour post wound size (corneal wounds; 0.1 ug/ml, 24 hours post wound): 69%
- Percentage of 1 hour post wound size (corneal wounds; 0.1 ug/ml, 30 hours post wound): 43%
- Percentage of 1 hour post wound size (corneal wounds; 0.1 ug/ml, 48 hours post wound): 2%
- Percentage of 1 hour post wound size (corneal wounds; 0.1 ug/ml, 54 hours post wound): 0%
- Percentage of 1 hour post wound size (corneal wounds; 0.1 ug/ml, 72 hours post wound): 0%
- Corneal wound size (corneal wounds; 10 μg/ml eye drop three times daily, 48 hours post wound): 0.00 ± 0.07 mm^2
- Corneal wound size (corneal wounds; 10 μg/ml eye drop three times daily, 54 hours post wound): 0.00 ± 0.00 mm^2
- Corneal wound size (corneal wounds; 10 μg/ml eye drop three times daily, 72 hours post wound): 0.00 ± 0.00 mm^2
- Percentage of 1 hour post wound size (corneal wounds; 10 ug/ml, 0 hours post wound): 100%
- Percentage of 1 hour post wound size (corneal wounds; 10 ug/ml, 6 hours post wound): 84%
- Percentage of 1 hour post wound size (corneal wounds; 10 ug/ml, 24 hours post wound): 58%
- Percentage of 1 hour post wound size (corneal wounds; 10 ug/ml, 30 hours post wound): 43%
- Percentage of 1 hour post wound size (corneal wounds; 10 ug/ml, 48 hours post wound): 0%
- Percentage of 1 hour post wound size (corneal wounds; 10 ug/ml, 54 hours post wound): 0%
- Percentage of 1 hour post wound size (corneal wounds; 10 ug/ml, 72 hours post wound): 0%
- Healing activity of corneal wounds (corneal wounds; 0.1 and 10 μg/ml vs control, rabbits): significant dose dependent accelerated healing activity
- Wound healing speed compared with control at each time point (corneal wounds; wounds treated with 0.1 μg/ml or 10 μg/ml): healed faster
- Toxicity on pathological analysis of corneas (rabbit corneas): no toxicity
